Assay results: patent US7547513B2, “Mutants of deoxycytidine kinase having extended enzymatic activity” (priority 2001, dated 2009)

What was measured:
Type in all cases: cell-based
[1] = test system: Escherichia coli β7334 Δdeo tdk cdd::Tn10 pSUTrc (dck allele: none); conditions: strain β7334, dck allele none; 18 h 37° C., MS medium + IPTG
Method: (§1) The culture was then diluted 100 times in the same medium supplemented with IPTG and distributed on 96-well microplates in a final volume of 100 μl in a series of dilutions from to 2 to 2 nucleotide analogues. Each analogue was tested twice. After incubation for 18 hours at 37° C. with stirring, the MIC was determined as corresponding to the lowest analogue concentration for which no turbidity was detectable.
(§2) The toxicity of nucleoside analogues, deviating either by the sugar or by the base, was evaluated in strains of genotype Δdeo tdk cdd expressing on a plasmid the different dckH alleles, wild-type allele, D133E, R104Q and double mutant.
(§3) The minimum inhibitory concentrations, expressed in microM, were determined as indicated in the section Materials and Methods.

[2] = test system: Escherichia coli β7338 Δdeo tdk cdd::Tn10 pSUDCK4 (dck:D133E-R104Q); conditions: strain β7338, dck allele D133E R104Q; 18 h 37° C., MS medium + IPTG
Method: as §1, §2, §3

[3] = test system: Escherichia coli β7339 Δdeo tdk cdd::Tn10 (dckH none, amkG wt); assay: microbe, parasite or virus in culture; conditions: strain β7339, dckH none, amkG wt
Method: as §1
(§4) We jointly expressed, within the genetic context Δdeo tdk cdd each of the four alleles of dckH with each of the two wt and T39A alleles of amkG, and tested the toxicity of the different nucleoside analogues already tested previously (Table 4 below).
as §3

[4] = test system: Escherichia coli β7340 Δdeo tdk cdd::Tn10 (dckH wt, amkG wt); assay: microbe, parasite or virus in culture; conditions: strain β7340, dckH wt, amkG wt
Method: as §1, §4, §3

[5] = test system: Escherichia coli β7341 Δdeo tdk cdd::Tn10 (dckH D133E, amkG wt); assay: microbe, parasite or virus in culture; conditions: strain β7341, dckH D133E, amkG wt
Method: as §1, §4, §3

[6] = test system: Escherichia coli β7342 Δdeo tdk cdd::Tn10 (dckH R104Q, amkG wt); assay: microbe, parasite or virus in culture; conditions: strain β7342, dckH R104Q, amkG wt
Method: as §1, §4, §3

[7] = test system: Escherichia coli β7343 Δdeo tdk cdd::Tn10 (dckH D133E R104Q, amkG wt); assay: microbe, parasite or virus in culture; conditions: strain β7343, dckH D133E R104Q, amkG wt
Method: as §1, §4, §3

[8] = test system: Escherichia coli β7344 Δdeo tdk cdd::Tn10 (dckH none, amkG T39A); assay: microbe, parasite or virus in culture; conditions: strain β7344, dckH none, amkG T39A
Method: as §1, §4, §3

[9] = test system: Escherichia coli β7345 Δdeo tdk cdd::Tn10 (dckH wt, amkG T39A); assay: microbe, parasite or virus in culture; conditions: strain β7345, dckH wt, amkG T39A
Method: as §1, §4, §3

[10] = test system: Escherichia coli β7346 Δdeo tdk cdd::Tn10 (dckH D133E, amkG T39A); assay: microbe, parasite or virus in culture; conditions: strain β7346, dckH D133E, amkG T39A
Method: as §1, §4, §3

[11] = test system: Escherichia coli β7347 Δdeo tdk cdd::Tn10 (dckH R104Q, amkG T39A); assay: microbe, parasite or virus in culture; conditions: strain β7347, dckH R104Q, amkG T39A
Method: as §1, §4, §3

[12] = test system: Escherichia coli β7348 Δdeo tdk cdd::Tn10 (dckH D133E R104Q, amkG T39A); assay: microbe, parasite or virus in culture; conditions: strain β7348, dckH D133E R104Q, amkG T39A
Method: as §1, §4, §3

[13] = test system: Escherichia coli strains of genotype Δdeo tdk cdd expressing the different dckH alleles; assay: MIC toxicity in strains Δdeo tdk cdd expressing any dckH allele; conditions: whatever the DCK allele
Method: as §1, §2

[14] = test system: Escherichia coli β7335 Δdeo tdk cdd::Tn10 pSUDCK1 (dck wt); conditions: DCK wt
Method: (§5) The culture was then diluted 100 times in the same medium supplemented with IPTG and distributed on 96-well microplates in a final volume of 100 μl in a series of dilutions from to 2 to 2 nucleotide analogues. Each analogue was tested twice.
as §2, §3

[15] = test system: Escherichia coli β7336 Δdeo tdk cdd::Tn10 pSUDCK2 (dck:D133E); conditions: strain β7336, dck allele D133E; 18 h 37° C., MS medium + IPTG
Method: as §5, §2, §3

[16] = test system: Escherichia coli β7337 Δdeo tdk cdd::Tn10 pSUDCK3 (dck:R104Q); conditions: strain β7337, dck allele R104Q; 18 h 37° C., MS medium + IPTG
Method: as §5, §2, §3

## Nc1ncn([C@H]2C[C@H](O)[C@@H](CO)O2)c(=O)n1 [5-aza-dC, 5-aza-2′-deoxycitidine]
[1]
  minimum inhibitory concentration (MIC): > (no toxicity could be detected at the highest analogue concentration, 1.28 mM)
[2]
  minimum inhibitory concentration (MIC): 1.25 µM
[3]
  minimum inhibitory concentration (MIC): > (no toxicity could be detected at the highest analogue concentration, 1280 microM)
[4]
  minimum inhibitory concentration (MIC): ≦1.25 microM
[5]
  minimum inhibitory concentration (MIC): ≦1.25 microM
[6]
  minimum inhibitory concentration (MIC): ≦1.25 microM
[7]
  minimum inhibitory concentration (MIC): ≦1.25 microM
[8]
  minimum inhibitory concentration (MIC): > (no toxicity could be detected at the highest analogue concentration, 1280 microM)
[9]
  minimum inhibitory concentration (MIC): ≦1.25 microM
[10]
  minimum inhibitory concentration (MIC): ≦1.25 microM
[11]
  minimum inhibitory concentration (MIC): ≦1.25 microM
[12]
  minimum inhibitory concentration (MIC): ≦1.25 microM
[13]
  MIC: < 1.25 µM

## Cc1cn([C@H]2C[C@H](N=[N+]=[N-])[C@@H](CO)O2)c(=O)[nH]c1=O [AZT, 3′-azido-3′dexoythymidine]
[1]
  minimum inhibitory concentration (MIC): > (no toxicity could be detected at the highest analogue concentration, 1.28 mM)
[2]
  minimum inhibitory concentration (MIC): 1280 µM
[14]
  substrate of DCK wt (from toxicity tests of Table 3): not a substrate
[15]
  minimum inhibitory concentration (MIC): 640 µM
[16]
  minimum inhibitory concentration (MIC): 640 µM
[3]
  minimum inhibitory concentration (MIC): > (no toxicity could be detected at the highest analogue concentration, 1280 microM)
[4]
  minimum inhibitory concentration (MIC): > (no toxicity could be detected at the highest analogue concentration, 1280 microM)
[5]
  minimum inhibitory concentration (MIC): > (no toxicity could be detected at the highest analogue concentration, 1280 microM)
[6]
  minimum inhibitory concentration (MIC): > (no toxicity could be detected at the highest analogue concentration, 1280 microM)
[7]
  minimum inhibitory concentration (MIC): > (no toxicity could be detected at the highest analogue concentration, 1280 microM)
[8]
  minimum inhibitory concentration (MIC): > (no toxicity could be detected at the highest analogue concentration, 1280 microM)
[9]
  minimum inhibitory concentration (MIC): > (no toxicity could be detected at the highest analogue concentration, 1280 microM)
[11]
  minimum inhibitory concentration (MIC): > (no toxicity could be detected at the highest analogue concentration, 1280 microM)
[12]
  minimum inhibitory concentration (MIC): > (no toxicity could be detected at the highest analogue concentration, 1280 microM)
